Test results as given in patent publication US9133131B2 (Purdue Pharma L.P., priority 2011, dated 2015).

Tests used:
hNav1.7 = hNav1.7 (Homo sapiens (Human), UniProt Q15858); test: Electrophysiology (EP) whole-cell patch clamp assay; assay type: cell-based; conditions: hNav1.7 HEK-293 cells; for Ki: affinity for the inactivated state of the channel, read-out: Nav1.7 Activity EP assay Ki; for Kd: resting block dissociation constant, read-out: Nav1.7 Activity EP assay Kr
Procedure: Cells: The hNav1.7 expressing HEK-293 cells were plated on 35 mm culture dishes pre-coated with poly-D-lysine in standard DMEM culture media (Mediatech, Inc., Herndon, Va.) and incubated in a 5% CO2 incubator at 37° C. Cultured cells were used approximately 12-48 hours after plating.
Electrophysiology: On the day of experimentation, the 35 mm dish was placed on the stage of an inverted microscope equipped with a perfusion system that continuously perfuses the culture dish with fresh recording media. A gravity driven superfusion system was used to apply test solutions directly to the cell under evaluation. This system consists of an array of glass pipette glass connected to a motorized horizontal translator. The outlet of the shooter was positioned approximately 100 μm from the cell of interest.
Whole cell currents were recorded using the whole-cell patch clamp configuration using an Axopatch 200B amplifier (Axon Instruments, Foster City Calif.), 1322A A/D converter (Axon Instruments) and pClamp software (v. 8; Axon Instruments) and stored on a personal computer. Gigaseals were formed and the whole-cell configuration was established in voltage clamp mode, and membrane currents generated by hNav1.7 were recorded in gap-free mode. Borosilicate glass pipettes have resistance values between 1.5 and 2.0 MΩ when filled with pipette solution and series resistance (<5 MΩ) was compensated 75-80%. Signals were sampled at 50 kHz and low pass filtered at 3 kHz.
Voltage protocols: After establishing the whole-cell configuration in voltage clamp mode, voltage protocols were run to establish the 1) test potential, 2) holding potential, and 3) the conditioning potential for each cell.
After establishing the whole-cell configuration in voltage clamp mode, a standard I-V protocol was run to determine the potential at which the maximal current (Imax) is elicited. This potential was the test potential (Vt). To determine a conditioning potential at which 100% of channels were in the inactivated state, a standard steady-state inactivation (SSIN) protocol was run using a series of fifteen 100 ms-long depolarizing prepulses, incrementing in 10 mV steps, immediately followed by a 5 ms testing pulse, Vt, to Vmax. This protocol also permitted determination of the holding potential at which all channels are in the resting state.
For compounds causing significant retardation of recovery from inactivation, an estimate of the affinity for the inactivated state of the channel (Ki) was generated using the following protocol. From the negative, no residual inactivation, holding potential, the cell was depolarized to the conditioning voltage for 2-5 seconds, returned to the negative holding potential for 10-20 ms to relieve fast inactivation and then depolarized to the test potential for ˜15 ms. This voltage protocol was repeated every 10-15 seconds, first to establish a baseline in the absence of the test compound, then in the presence of the test compound.
After a stable baseline was established, the test compound was applied and block of the current elicited by the test pulse assessed. In some cases, multiple cumulative concentrations were applied to identify a concentration that blocked between 40-60% of this current. Washout of the compound was attempted by superfusing with control solution once steady-state block was observed. An estimate of the Ki was calculated as follows: Ki=[drug]*{FR/(1−FR)}, Eq. 1
where [drug] is the concentration of a drug, and FR=I(after drug)/I(control), Eq. 2 where I is the peak current amplitude. If multiple concentrations were used, Ki was determined from the fit of a logistic equation to FRs plotted against corresponding drug concentrations.
In the alternative, the voltage clamp protocol to examine hNav1.7 currents was as follows. […]

human Nav1.7 = human Nav1.7 (Homo sapiens (Human), UniProt Q15858); test: FLIPR sodium dye assay for sodium channel blocking activity; assay type: cell-based; conditions: recombinant human Nav1.7 in HEK293 cells
Description: For dominant selection of the Nav1.7-expressing clones, the expression plasmid co-expressed the neomycin resistance gene. […] Recombinant beta and gamma subunits were not introduced into this cell line. Additional cell lines expressing recombinant Nav1.7 cloned from other species can also be used, alone or in combination with various beta subunits, gamma subunits or chaperones.
Cell maintenance: Unless otherwise noted, cell culture reagents were purchased from Mediatech of Herndon, Va. The recombinant Nav1.7/HEK293 cells were routinely cultured in growth medium consisting of Dulbecco's […] essential medium containing 10% fetal bovine serum (FBS, Hyclone, Thermo Fisher Scientific, Logan, Utah), 100 U/mL penicillin, 100 μg/mL streptomycin, 2-4 mM L-glutamine, and […] G418. For natural, non-recombinant cell lines, the selective antibiotic was omitted, and additional media formulations can be applied as needed.
The intensity of this emission, but not the wavelength range, is increased when the dye is exposed to Na^+ ions, which it can bind with partial selectivity. Cells expressing Nav1.7 or other sodium channels were loaded with the CoroNa™ Green dye immediately in advance of the fluorescence assay, and then, after agonist stimulation, the mobilization of Na^+ ions was detected as the Na^+ ions flowed from the extracellular fluid into the cytoplasm through the activated sodium channel pores. The dye was stored in the dark as a lyophilized powder, and then an aliquot was dissolved immediately before the cell loading procedure, according to the instructions of the manufacturer to a stock concentration of 10 mM in DMSO. It was then diluted in the assay buffer to a 4× concentrated working solution, so that the final concentration of dye in the cell loading buffer was 5 μM.
These scorpion toxins inhibit the fast inactivation of their cognate target channels. Stock solutions of the agonists were prepared to 40 mM in DMSO (veratridine) and 1 mg/mL in dH2O (scorpion venom), and then diluted to make a 4× or 2× stock (depending on the particular assay) in assay buffer, the final concentration being 100 μM (veratridine) and 10 μg/mL (scorpion venom). Both of the agonists were purchased from Sigma Aldrich, St. Louis, Mo.
Test Compounds: Test compounds were dissolved in DMSO to yield 10 mM stock solutions. […] If a particular test article appeared to be especially potent, then the concentration curve was adjusted, e.g., to 10-fold lower concentrations, in order to perform the dose-response in a more relevant concentration range. Compound dilutions were added during the dye-loading and pre-stimulation step, and then again during the fluorescence assay, early in the kinetic read.
Data Analysis: The data were analyzed according to methods known to those skilled in the art or using the GraphPad® Prism version 4.0 or higher, Program (available from GraphPad Software, San Diego, Calif.) to determine the IC50 value for the test article. At least one standard reference compound was evaluated during each experiment.
FLIPR® or FLIPR^TETRA® sodium dye assay with KCl and test article pre-incubation: Cells were prepared by plating the recombinant HEK293 cells or other host cells expressing either recombinant or non-recombinant, native, Nav1.7 alpha subunit, alone or in combination with various beta and gamma subunits at a density of ˜40,000 cells/well into a 96-well black, clear-bottom, PDL-coated plate. The assay can be adapted to 384-well or 1,536-well format, if desired, using proportionately less cells and media. The plate was then incubated in growth media, with or without selective antibiotic, overnight at 37° C. at 5% CO2, 95% humidity, in preparation for the assay. For counter-screens of other voltage-gated sodium channels, the procedure was very similar, though optimal densities of cells, media and subsequent assay components can be fine-tuned for the particular cell line or isoform.

Sequence of human Nav1.7 (Q15858 other isoform, or with tags, fused parts or gaps): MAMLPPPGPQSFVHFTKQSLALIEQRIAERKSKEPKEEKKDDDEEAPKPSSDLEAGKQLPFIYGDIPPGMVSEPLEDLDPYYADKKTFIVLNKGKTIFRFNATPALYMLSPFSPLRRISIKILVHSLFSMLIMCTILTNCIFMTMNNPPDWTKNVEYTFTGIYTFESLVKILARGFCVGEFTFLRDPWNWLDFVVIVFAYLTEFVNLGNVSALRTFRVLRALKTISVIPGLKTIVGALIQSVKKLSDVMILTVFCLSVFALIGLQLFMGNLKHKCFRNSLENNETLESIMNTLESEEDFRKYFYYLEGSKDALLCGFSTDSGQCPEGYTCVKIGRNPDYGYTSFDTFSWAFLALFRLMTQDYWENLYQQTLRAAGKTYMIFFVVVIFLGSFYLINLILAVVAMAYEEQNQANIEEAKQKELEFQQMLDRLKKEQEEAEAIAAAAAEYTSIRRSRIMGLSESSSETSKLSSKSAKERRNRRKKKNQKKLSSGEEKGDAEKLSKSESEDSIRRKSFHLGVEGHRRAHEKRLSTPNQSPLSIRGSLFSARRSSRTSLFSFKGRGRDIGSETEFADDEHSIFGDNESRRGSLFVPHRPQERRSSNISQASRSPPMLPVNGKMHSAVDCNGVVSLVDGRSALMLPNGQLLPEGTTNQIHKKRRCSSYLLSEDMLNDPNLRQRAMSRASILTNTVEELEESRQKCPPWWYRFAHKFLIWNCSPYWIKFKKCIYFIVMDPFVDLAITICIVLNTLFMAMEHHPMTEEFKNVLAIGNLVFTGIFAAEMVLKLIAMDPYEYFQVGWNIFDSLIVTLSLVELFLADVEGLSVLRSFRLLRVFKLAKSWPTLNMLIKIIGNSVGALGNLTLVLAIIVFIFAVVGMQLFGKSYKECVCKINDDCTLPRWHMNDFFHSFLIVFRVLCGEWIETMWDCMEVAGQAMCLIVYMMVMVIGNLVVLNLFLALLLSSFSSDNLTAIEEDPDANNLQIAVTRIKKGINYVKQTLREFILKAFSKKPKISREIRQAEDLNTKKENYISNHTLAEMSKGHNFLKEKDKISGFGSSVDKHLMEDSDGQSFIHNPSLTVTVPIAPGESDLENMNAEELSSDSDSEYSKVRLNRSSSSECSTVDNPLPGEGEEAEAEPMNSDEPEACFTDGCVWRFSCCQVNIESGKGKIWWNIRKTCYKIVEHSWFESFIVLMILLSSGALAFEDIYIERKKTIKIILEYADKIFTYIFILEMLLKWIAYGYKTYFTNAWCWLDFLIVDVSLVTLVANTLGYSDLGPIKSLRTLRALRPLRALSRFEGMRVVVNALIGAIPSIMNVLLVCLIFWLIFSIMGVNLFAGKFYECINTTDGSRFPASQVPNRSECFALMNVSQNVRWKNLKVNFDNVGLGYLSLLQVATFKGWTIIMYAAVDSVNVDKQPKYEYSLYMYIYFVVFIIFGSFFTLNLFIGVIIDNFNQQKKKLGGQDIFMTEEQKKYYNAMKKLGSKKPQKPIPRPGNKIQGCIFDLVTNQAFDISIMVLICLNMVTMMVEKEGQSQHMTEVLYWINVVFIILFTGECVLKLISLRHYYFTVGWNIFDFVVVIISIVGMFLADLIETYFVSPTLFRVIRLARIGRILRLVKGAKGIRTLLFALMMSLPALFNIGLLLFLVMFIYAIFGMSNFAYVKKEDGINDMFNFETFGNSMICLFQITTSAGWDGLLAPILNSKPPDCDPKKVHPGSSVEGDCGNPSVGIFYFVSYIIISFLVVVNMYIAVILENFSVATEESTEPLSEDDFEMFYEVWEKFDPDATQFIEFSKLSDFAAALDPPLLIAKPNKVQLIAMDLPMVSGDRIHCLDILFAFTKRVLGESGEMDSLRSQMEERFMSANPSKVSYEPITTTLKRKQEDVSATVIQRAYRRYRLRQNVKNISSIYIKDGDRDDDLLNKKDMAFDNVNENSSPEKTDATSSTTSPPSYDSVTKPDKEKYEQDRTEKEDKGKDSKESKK
Sequence of hNav1.7 (Q15858 other isoform, or with tags, fused parts or gaps): as above

Structure (SMILES) | Ki (hNav1.7) [nM] | Kd (hNav1.7) [nM] | IC50 (human Nav1.7) [nM]
C[C@H](NC(=O)c1cc([C@H](O)CO)nc(-c2ccc(Oc3ccc(F)cc3)cc2)n1)C(N)=O [compound 16] | 643 ± 190 | 154000 ± 54400 | 593 ± 4
NC(=O)c1cc([C@H](O)CO)nc(-c2ccc(Oc3ccc(C(F)(F)F)cn3)cc2)n1 [compound 19] |  |  | 325
N#Cc1cc(Oc2ccc(-c3nc(C(N)=O)cc([C@H](O)CO)n3)cc2)ccc1C(F)(F)F [compound 11] | 147 ± 30 | 2010 ± 310 | 279 ± 112
NC(=O)c1cc([C@@H](O)CO)nc(-c2ccc(Oc3ccc(C(F)(F)F)cc3)cc2)n1 [compound 18] |  |  | 135 ± 28
C[C@H](NC(=O)c1cc([C@H](O)CO)nc(-c2ccc(Oc3ccc(F)cc3)cc2)n1)C(=O)O [compound 15] |  |  | > 20000
N#Cc1ccc(Oc2ccc(-c3nc(C(N)=O)cc([C@H](O)CO)n3)cc2)cc1C(F)(F)F [compound 13] | 195 ± 30 | 5150 ± 360 | 394 ± 19
NC(=O)c1cc([C@@H](O)CO)nc(-c2ccc(Oc3ccc(Cl)cc3F)cc2)n1 [compound 9] | 27 ± 0.3 | 1040 ± 230 | 67 ± 5
NC(=O)c1cc([C@H](O)CO)nc(-c2ccc(Oc3ccc(C(F)(F)F)cc3)cc2)n1 [compound 17] |  |  | 133 ± 26
N#Cc1ccc(Oc2ccc(-c3nc(C(N)=O)cc([C@@H](O)CO)n3)cc2)cc1C(F)(F)F [compound 12] | 400 ± 90 | 8670 ± 990 | 384 ± 29
NC(=O)c1cc([C@H](O)CO)nc(-c2ccc(Oc3ccc(Cl)cc3F)cc2)n1 [compound 10] |  |  | 84 ± 29
N#Cc1ccc(Oc2ccc(-c3nc(C(N)=O)cc([C@H](O)CO)n3)cc2)c(C(F)(F)F)c1 [compound 5] |  |  | 526 ± 129
COC(=O)[C@H](C)NC(=O)c1cc([C@H](O)CO)nc(-c2ccc(Oc3ccc(F)cc3)cc2)n1 [compound 14] |  |  | 1920 ± 401
